Values quoted from earlier work as cited in paper PMC10386743, “Application of Ligand- and Structure-Based Prediction Models for the Design of Alkylhydrazide-Based HDAC3 Inhibitors as Novel Anti-Cancer Compounds” (Pharmaceuticals, 2023).

system: recombinant human HDAC3; details: recombinant human HDAC3, Boc-Lys(acetyl)-AMC; supplement Ref. [46]

In order of rising “pIC50 HDAC3 (HDAC3 experimental pIC50)” value:
1. CCCNNC(=O)c1ccc(CNC(=O)c2cc3cnccc3cn2)cc1 [Compound 19]  8.69
2. CCCNNC(=O)c1ccc(CNC(=O)c2cnc3ccccc3c2)cc1 [Compound 18]  8.75
3. CCCNNC(=O)c1ccc(CNC(=O)c2cc3cc(F)ccc3[nH]2)cc1 [Compound 17]  8.79
4. CCCNNC(=O)c1ccc(CNC(=O)c2ccc3ccncc3c2)cc1 [Compound 16]  8.81
5. CCCNNC(=O)c1ccc(CNC(=O)c2cc3ccccc3cn2)cc1 [Compound 15]  8.83
6. CCCNNC(=O)c1ccc(CNC(=O)c2nc3ccccc3[nH]2)cc1 [Compound 14]  8.84
7. CCCNNC(=O)c1ccc(CNC(=O)c2nc3ccccc3s2)cc1 [Compound 12]  8.88
8. CCCNNC(=O)c1ccc(CNC(=O)c2cc3cc(Br)ccc3[nH]2)cc1 [Compound 13]  8.88
9. CCCNNC(=O)c1ccc(CNC(=O)c2ccc3cnccc3c2)cc1 [Compound 11]  8.99
10. CCCNNC(=O)c1ccc(CNC(=O)c2ccc3ccccc3n2)cc1 [Compound 9]  9.05
11. C#CCOc1ccc2oc(C(=O)NCc3ccc(C(=O)NNCCC)cc3)cc2c1 [Compound 8]  9.07
12. CCCNNC(=O)c1ccc(CNC(=O)c2cc3cc(F)ccc3o2)cc1 [Compound 7]  9.08
13. CCCNNC(=O)c1ccc(CNC(=O)c2cc3cc(Cl)ccc3[nH]2)cc1 [Compound 6]  9.18
14. CCCNNC(=O)c1ccc(CNC(=O)c2cc3cc(Cl)ccc3o2)cc1 [Compound 5]  9.21
15. CCCNNC(=O)c1ccc(CNC(=O)c2cc3cc(Br)ccc3o2)cc1 [Compound 42]  9.21
16. CCCNNC(=O)c1ccc(CNC(=O)c2cc3cc(OC)ccc3[nH]2)cc1 [Compound 41]  9.24
17. CCCNNC(=O)c1ccc(CNC(=O)c2cc3cc(O)ccc3o2)cc1 [Compound 40]  9.29
18. CCCNNC(=O)c1ccc(CNC(=O)c2cc3ccccc3[nH]2)cc1 [Compound 4]  9.36
19. CCCNNC(=O)c1ccc(CNC(=O)c2cc3ccccc3o2)cc1 [Compound 3]  9.42
20. CCCNNC(=O)c1ccc(CNC(=O)c2cc3cc(OC)ccc3o2)cc1 [Compound 1]  9.55

same assay, conditions: recombinant human HDAC3, Boc-Lys(acetyl)-AMC; supplement prints Ref. [48]

In order of falling “pIC50 HDAC3 (HDAC3 experimental pIC50)” value:
1. CCCNNC(=O)/C=C/c1ccc(CNCCc2c(C)[nH]c3ccccc23)cc1 [Compound 2]  9.55
2. CCCNNC(=O)c1ccc(NCc2ccccc2)cc1 [Compound 22]  8.21
3. CCCNNC(=O)c1ccc(CN(CCc2c(C)[nH]c3ccccc23)C(=O)OC(C)(C)C)cc1 [Compound 43]  7.90
4. CCCNNC(=O)/C=C/c1ccc(CN(CCc2c(C)[nH]c3ccccc23)C(=O)OC(C)(C)C)cc1 [Compound 44]  7.78
5. CCCNNC(=O)c1ccc(CNCCc2c(C)[nH]c3ccccc23)cc1 [Compound 26]  7.70
6. CCCNNC(=O)c1ccc(OCc2ccccc2)cc1 [Compound 27]  7.61
7. Cc1[nH]c2ccccc2c1CCNCc1ccc(/C=C/C(=O)NNCCC#N)cc1 [Compound 45]  7.46
8. CCCNNC(=O)c1ccc(NC(=O)c2ccccc2)cc1 [Compound 46]  7.31
9. CCCNNC(=O)c1ccc(CN(Cc2ccccc2)C(=O)OC(C)(C)C)cc1 [Compound 49]  7.11
10. CCCNNC(=O)c1ccc(CNCc2ccccc2)cc1 [Compound 30]  7.01
11. COC(=O)CCNNC(=O)/C=C/c1ccc(CNCCc2c(C)[nH]c3ccccc23)cc1 [Compound 34]  6.51
12. CCCNNC(=O)c1cccc(CNCCc2c(C)[nH]c3ccccc23)c1 [Compound 36]  6.17
13. CCCNNC(=O)c1cccc(CN(CCc2c(C)[nH]c3ccccc23)C(=O)OC(C)(C)C)c1 [Compound 57]  5.30
14. Cc1[nH]c2ccccc2c1CCNCc1ccc(/C=C/C(=O)NNCCN)cc1 [Compound 59]  5.28

same assay, conditions: recombinant human HDAC3, Boc-Lys(acetyl)-AMC; supplement prints Ref. [50]

In order of falling “pIC50 HDAC3 (HDAC3 experimental pIC50)” value:
1. CCCNNC(=O)c1ccc(CNC(=O)/C=C/c2ccccc2)cc1 [Compound 10]  9.02
2. CCCNNC(=O)c1ccc(CNC(=O)c2ccccc2)cc1 [Compound 20]  8.46
3. CCCCNNC(=O)c1ccc(CNC(=O)/C=C/c2ccccc2)cc1 [Compound 21]  8.44
4. CCCCNNC(=O)c1ccc(CNC(=O)c2ccccc2)cc1 [Compound 23]  8.07
5. CCCCCNNC(=O)c1ccc(CNC(=O)c2ccccc2)cc1 [Compound 24]  7.73
6. CCNNC(=O)c1ccc(CNC(=O)/C=C/c2ccccc2)cc1 [Compound 25]  7.71
7. CCCCCNNC(=O)c1ccc(CNC(=O)/C=C/c2ccccc2)cc1 [Compound 28]  7.49
8. O=C(NCc1ccc(C(=O)NNCC2CC2)cc1)c1ccccc1 [Compound 29]  7.40
9. CCCCNNC(=O)c1ccc(-c2ccccc2)cc1 [Compound 47]  7.17
10. O=C(NCc1ccc(C(=O)NNCCC(F)(F)F)cc1)c1ccccc1 [Compound 48]  7.16
11. O=C(NCc1ccc(C(=O)NNCC2CCC2)cc1)c1ccccc1 [Compound 50]  7.07
12. CCCCNNC(=O)c1ccc(OC)cc1 [Compound 31]  6.80
13. CCCCCCNNC(=O)c1ccc(CNC(=O)c2ccccc2)cc1 [Compound 32]  6.73
14. CCNNC(=O)c1ccc(CNC(=O)c2ccccc2)cc1 [Compound 51]  6.73
15. CCCCNNC(=O)/C=C/c1ccccc1 [Compound 33]  6.53
16. CCCCNNC(=O)c1ccc(Oc2ccccc2)cc1 [Compound 52]  6.51
17. CCCCCCCNNC(=O)c1ccc(CNC(=O)c2ccccc2)cc1 [Compound 35]  6.25
18. CCCCNNC(=O)c1ccc2ccccc2c1 [Compound 37]  6.05
19. CCCCNNC(=O)c1cccs1 [Compound 38]  6.04
20. CCCCCCCCNNC(=O)c1ccc(CNC(=O)c2ccccc2)cc1 [Compound 53]  5.96
21. CCCCNNC(=O)c1cc2ccccc2o1 [Compound 54]  5.87
22. CCCCNNC(=O)c1cccnc1 [Compound 39]  5.81
23. C/C=C/CNNC(=O)c1ccc(CNC(=O)c2ccccc2)cc1 [Compound 55]  5.81
24. CCCCNNC(=O)CCc1ccccc1 [Compound 56]  5.72
25. CCCCNNC(=O)c1ccco1 [Compound 58]  5.30

In the case of CCCCNNC(=O)c1cccc2ccccc12 [Compound 60], the “pIC50 HDAC3 (HDAC3 experimental pIC50)” value is given as under 5.00.
For CC(C)NNC(=O)c1ccc(CNC(=O)c2ccccc2)cc1 [Compound 61], the “pIC50 HDAC3 (HDAC3 experimental pIC50)” value is given as under 5.00.
For CC/C=N/NC(=O)c1ccc(CNC(=O)c2ccccc2)cc1 [Compound 62], the “pIC50 HDAC3 (HDAC3 experimental pIC50)” value is given as under 5.00.
For CCCCCCCCCCNNC(=O)c1ccc(CNC(=O)c2ccccc2)cc1 [Compound 63], the “pIC50 HDAC3 (HDAC3 experimental pIC50)” value is listed as under 5.00.

system: HDAC3; details: 1 µM

In order of falling “HDAC3 inhibition @1 µM” value:
1. CCCNNC(=O)c1cnc(NCCc2ccccc2)nc1 [Compound 74]  41%@1 µM
2. CCCCCCNNC(=O)c1ccc(C)c(NCc2ccccc2)c1 [Compound 71]  9%@1 µM

same assay, conditions: 10uM

In order of falling “HDAC3 inhibition @10uM” value:
1. CCCNNC(=O)c1cnc(NCCc2ccccc2)nc1 [Compound 74]  87%
2. CCCCCCNNC(=O)c1ccc(C)c(NCc2ccccc2)c1 [Compound 71]  42%

same assay, conditions: experimentally determined

For CCCNNC(=O)c1ccc(CNC(C)=O)cc1 [Compound 68], the “activity on HDAC3 (in words)” value is listed as “moderate activity”.
For CCCCCCNNC(=O)c1ccc(CNC(C)=O)cc1 [Compound 69], the “activity on HDAC3 (in words)” value is given as “did not show significant activity”.
For CCCCCCNNC(=O)c1cccc(NCc2ccccc2)c1 [Compound 70], the “activity on HDAC3 (in words)” value is given as “did not show significant activity”.
For CCCCCCNNC(=O)c1ccc(C)c(NCc2ccccc2)c1 [Compound 71], the “activity on HDAC3 (in words)” value is listed as “did not show significant activity”.
In the case of CCCNNC(=O)c1cnc(NCCc2ccccc2)nc1 [Compound 74], the “activity on HDAC3 (in words)” value is listed as “did not show significant inhibitory activity”.

same assay, conditions: newly designed compounds

In order of rising “pIC50 HDAC3 (HDAC3 experimental pIC50)” value:
1. CCCNNC(=O)c1ccc(CNC(C)=O)cc1 [Compound 68]  5.80
2. CCCCCNNC(=O)c1ccc(-c2ccc(CNC(C)=O)cc2)cc1 [Compound 66]  5.82
3. CCCCNNC(=O)c1ccc(-c2ccc(CNC(C)=O)cc2)cc1 [Compound 65]  6.46
4. CCCCNNC(=O)c1cnc(NCc2ccccc2)nc1 [Compound 73]  6.70
5. CCCNNC(=O)c1cnc(N2CCN(C)CC2)nc1 [Compound 79]  6.92
6. CCCNNC(=O)c1cnc(NCc2ccc(CNC(C)=O)cc2)nc1 [Compound 80]  6.96
7. CCCNNC(=O)c1ccc(-c2ccc(CNC(C)=O)cc2)cc1 [Compound 64]  7.04
8. CCCNNC(=O)c1cnc(NCc2cccc3ccccc23)nc1 [Compound 75]  7.09
9. CCCNNC(=O)c1cnc(NCc2ccccc2Cl)nc1 [Compound 76]  7.22
10. CCCNNC(=O)c1cnc(NCc2cc(Cl)ccc2Cl)nc1 [Compound 78]  7.24
11. CCCNNC(=O)c1cnc(NCc2ccccc2)nc1 [Compound 72]  7.37
12. CCCNNC(=O)c1cnc(NCc2ccc(Cl)cc2)nc1 [Compound 77]  7.43

In the case of CCCCCCNNC(=O)c1ccc(-c2ccc(CNC(C)=O)cc2)cc1 [Compound 67], the “pIC50 HDAC3 (HDAC3 experimental pIC50)” value is listed as under 5.00.
For CCCCCCNNC(=O)c1ccc(CNC(C)=O)cc1 [Compound 69], the “pIC50 HDAC3 (HDAC3 experimental pIC50)” value is given as under 5.00.
In the case of CCCCCCNNC(=O)c1cccc(NCc2ccccc2)c1 [Compound 70], the “pIC50 HDAC3 (HDAC3 experimental pIC50)” value is listed as under 5.00.
